Data set [1] deals with cow. As to the kind of experiment: Solution / magnesium in complicated cases with intoxication. It is filed as in vivo. How it is done:
For example, during calving of weak and strong contractions of the uterus, atony of the rumen, reticulum and abamasum, colic and constipation. In fact, after administration of the solution, the effect can be seen even in complicated cases when intoxication takes place, the temperature of the body is increased, and there is loss of appetite. In this situation, the cow starts to ruminate and the general condition improves in 10 to 15 minutes after administration of the solution.

Data set [2] relates to inflammatory disorders. As to the kind of experiment: Magnesium sulfate in distilled water by intraperitoneal injection in a cow. The data set is classed as in vivo. The following applies: approximately 40 grams, cow of 500 kg. The text has this: After several years of using magnesium salts, the dose was reduced to an average dose of 3–20 grams for a 500 kg cow to get the same therapeutic effect. Therefore, the intraperitoneal administration, compared to other methods of drug administration, is a safe method because it avoids the toxic side effects through first-pass hepatic metabolism which permits the organism to create the abundance of magnesium used for recovery and healing. In fact, the administered dose can be higher than the traditional toxic level doses.

In data set [3] the test system is monkeys. To be noted: monkeys from six months old, double the normal dose; cited from earlier work.
Data set [4] concerns parturient paresis in cows (milk fever), ketosis (acetonomia), and paraplegia gravidarum. Kind of data set: Methenamine along with magnesium salts in parturient paresis, ketosis and paraplegia gravidarum. It is filed as in vivo. From the text:
Methenamine breaks down to formaldehyde and ammonia in areas of inflammation where formaldehyde acts as anti-inflammatory and bactericidal agent. Methenamine also increases membrane permeability, which helps to eliminate antibacterial toxic material from the body. […] After the fifteen minutes of administration, the condition of cows that had parturient paresis (milk fever), ketosis (acetonomia) started to improve and the cows began rumination again.

Data set [5] has as its system Dogs. The following applies: up to 600 mg/kg IV, single dose; cited from earlier work.
The subject of data set [6] is rats. To be noted: up to 600 mg/kg IV, single dose; cited from earlier work.
Data set [7] concerns rats. The following applies: reproduction studies in rats; cited from earlier work.
For data set [8], the system named is rabbits. To be noted: reproduction studies in rabbits; cited from earlier work.
The conditions of data set [9]: powder; cited from earlier work.
Where [10] appears, read: after administration of magnesium.

The structures appear in SMILES notation.

Results on 4 molecules are retold here after patent US7097860B2, “Method and composition for treatment of inflammatory and inflammation-related disorders” (priority 2001, dated 2006).

Turning to `[Mg+2]` [magnesium], in data set [1] (setting [10]), the “day of complete recovery” value is “seventh” and the “day on which the general condition improved” value is “third”. Further, the “day of estrus after administration” value in data set [1] (cows that previously did not have estrus) is given as “seventh”.

Turning to `O.O.O.O.O.O.O.O=S(=O)([O-])[O-].[Mg+2]` [magnesium sulfate, magnesium sulfate (MgSO4×7H2O)], in data set [2], the side effects entry is reported as “without any side effects” and the treatment outcome is “successful treatment”.

Turning to `C1N2CN3CN1CN(C2)C3` [Methenamine hippurate], the adverse effects entry in [3] is given as “without adverse effects”.

Regarding `C1N2CN3CN1CN(C2)C3` [methenamine, methenamine (hexamethylenetetramine, C6H12N4)], in [4] (20 grams per 500 kg, along with magnesium salts, other therapies unsuccessful), the treatment outcome is “successful treatment”. In addition, in [4] (parturient paresis (milk fever), ketosis (acetonomia)), the “time after administration at which condition started to improve and rumination began” value is listed as “fifteen”. The toxic effects result in data set [5] and in [6] was “without evidence of toxic effects” each time. The “harm to the fetus” value in [7] and in data set [8] was “have not revealed evidence of harm to the fetus” throughout. The solubility in water entry in [9] is “very soluble in water”.
